Measured values from paper PMC9840614, “A gain-of-function TPC2 variant R210C increases affinity to PI(3,5)P2 and causes lysosome acidification and hypopigmentation” (Nature Communications, 2023).

What was measured:
Assay type in all cases: cell-based
[1] = target: T1, Two Pore Channel 2 (TPC2), R210C (Homo sapiens, UniProt Q8NHX9, R210C); assay: whole-endolysosome patch clamp, HEK293 vacuoles, […]
T1 construct: gene TPCN2; EGFP-TPC2 R210C

[2] = target: T2, Two Pore Channel 2 (TPC2) (Homo sapiens, UniProt Q8NHX9, L11A/L12A); assay: inside-out patch clamp, HEK293, concentration response
T2 construct: gene TPCN2; EGFP-tagged plasma membrane-targeted TPC2 L11A/L12A
T2 sequence (Q8NHX9 whole entry L11A/L12A): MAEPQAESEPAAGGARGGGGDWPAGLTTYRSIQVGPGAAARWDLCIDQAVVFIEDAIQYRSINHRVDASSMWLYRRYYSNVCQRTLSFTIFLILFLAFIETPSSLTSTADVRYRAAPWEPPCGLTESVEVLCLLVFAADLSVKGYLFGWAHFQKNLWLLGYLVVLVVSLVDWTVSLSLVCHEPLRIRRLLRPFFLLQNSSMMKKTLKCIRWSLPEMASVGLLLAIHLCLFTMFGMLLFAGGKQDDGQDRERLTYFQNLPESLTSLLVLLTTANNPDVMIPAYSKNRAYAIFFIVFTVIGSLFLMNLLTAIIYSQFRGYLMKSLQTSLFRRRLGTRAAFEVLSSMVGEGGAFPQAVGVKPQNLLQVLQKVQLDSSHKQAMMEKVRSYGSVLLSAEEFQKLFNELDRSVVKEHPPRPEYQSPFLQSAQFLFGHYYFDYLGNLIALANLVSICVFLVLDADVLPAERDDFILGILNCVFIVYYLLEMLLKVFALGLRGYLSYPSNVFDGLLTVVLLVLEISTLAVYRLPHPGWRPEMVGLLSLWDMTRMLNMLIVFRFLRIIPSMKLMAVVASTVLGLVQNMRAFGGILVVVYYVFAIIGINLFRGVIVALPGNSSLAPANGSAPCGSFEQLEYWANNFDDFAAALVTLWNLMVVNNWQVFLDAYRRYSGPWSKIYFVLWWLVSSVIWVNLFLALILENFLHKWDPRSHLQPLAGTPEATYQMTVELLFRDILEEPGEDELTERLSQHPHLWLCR

[3] = target: T3, Two Pore Channel 2 (TPC2), R210C (Homo sapiens, UniProt Q8NHX9, L11A/L12A/R210C); assay: as above
T3 construct: gene TPCN2; EGFP-tagged plasma membrane-targeted TPC2 L11A/L12A
T3 sequence (Q8NHX9 whole entry L11A/L12A/R210C): as the sequence (Q8NHX9 whole entry L11A/L12A) above, with R210C counted along it

[4] = target: T4, Two Pore Channel 2 (TPC2), R210A (Homo sapiens, UniProt Q8NHX9, R210A); assay: channel activation EC50 (n = […], data not shown in figures)
T4 construct: gene TPCN2
T4 sequence (Q8NHX9 whole entry R210A): as the sequence (Q8NHX9 whole entry L11A/L12A) above, with A11L, A12L, R210A counted along it

T1 sequence (Q8NHX9 whole entry R210C): as the sequence (Q8NHX9 whole entry L11A/L12A) above, with A11L, A12L, R210C counted along it

Row | SMILES | whole-endolysosome patch clamp, HEK293 vacuoles, 100 nM [1] | EC50 [2] [nM] | EC50 [3] [nM] | EC50 [4] [nM]
1 | COc1ccc([C@H]2N[C@H](C(=O)O)Cc3c2[nH]c2ccccc32)cc1CN1CCN(c2ccccc2F)CC1 [Ned-19] | Ned-19 inhibited the R210C currents at both potentials with fast kinetics |  |  | 
2 | CCCCCCCC(=O)OC[C@H](COP(=O)(O)O[C@@H]1[C@H](O)[C@H](OP(=O)(O)O)[C@@H](O)[C@H](OP(=O)(O)O)[C@H]1O)OC(=O)CCCCCCC [PI(3,5)P2-diC8] |  | 209 ± 19.2 | 2.27 ± 0.25 | 19.4 ± 0.74
